Experimental data taken from US20190270778A1, “Cyclic Peptides As C5a Receptor Antagonists” (priority 2016, published 2019).
Numbered stars: 1 amine (or outer) side, 2 acyl side, 3 side chain; on linkers, the order of the positions; unused ones are H or OH. Bridge positions count the residues as written; N and C are the ends. Square brackets hold non-standard residues; d marks the D form. Peptide text beside a SMILES is read from it. * marks the point of attachment. X2 = O=C([C@@H](C[C@H]1CC[C@@H](O)CC1)N[*:1])[*:2]; X1 = CN(CC(=O)O)[C@@H](Cc1ccccc1)C(=O)*; Hyp = O=C(O)[C@@H]1C[C@@H](O)CN1; Orn = NCCC[C@H](N)C(=O)O

The compounds below were run against T1, C5a receptor (Homo sapiens, UniProt P21730) (assay: HWB oxidative burst assay (C5a-induced, luminol chemiluminescence)).
T1 construct: endogenous in cells; host or cells: leukocytes/granulocytes in freshly drawn whole blood of healthy volunteers
T1 sequence (P21730 1-350): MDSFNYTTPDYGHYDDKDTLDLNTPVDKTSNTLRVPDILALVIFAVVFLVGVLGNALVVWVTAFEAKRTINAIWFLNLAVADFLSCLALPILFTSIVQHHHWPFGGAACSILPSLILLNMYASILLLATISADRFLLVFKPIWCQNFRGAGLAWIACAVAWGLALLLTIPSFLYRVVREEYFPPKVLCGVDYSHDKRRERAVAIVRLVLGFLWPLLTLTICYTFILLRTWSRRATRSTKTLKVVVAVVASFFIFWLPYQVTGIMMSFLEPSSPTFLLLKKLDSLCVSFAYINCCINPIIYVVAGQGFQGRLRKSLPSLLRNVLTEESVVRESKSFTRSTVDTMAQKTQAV
Format: cell-based
Method: Inhibition of oxidative burst activity was determined in HWB primed with TNF-α and stimulated with C5a. C5a-induced oxidative burst response (generation of reactive oxygen species) was then detected in the presence of luminol as a chemiluminescent signal.
On the day of assay, HWB was collected from a healthy, non-medicated volunteer into tubes containing 3.8% sodium citrate (final sodium citrate concentration in HWB is 0.38%) and stored in a 37° C. water bath until use (no longer than 60 minutes).
To start the assay, TNF-α was added to HWB to a final concentration of 1.0 nM and 68 μL of this HWB/TNF-α mix was transferred to each well of a 384-well white Optiplate (assay plate). 4.0 μL of various concentrations of test agent were then added to the assay plate and mixed twice gently by aspirating up and down. The assay plate was then placed on a thermoshaker (JITTERBUG-4) and incubated at 37° C. (without shaking). After 60 minutes, C5a (Complement Technology) prepared in luminol (Sigma) was added to the assay plate and mixed twice gently by aspirating up and down. The plate was then placed in a ViewLux 1430 Microplate Imager (Perkin Elmer). After 5 minutes, oxidative burst activity was determined with the ViewLux by measuring luminol-enhanced whole blood chemiluminescence. Final assay conditions were 1.5 mM HEPES pH 7.5, 0.015% BSA, 15% HBSS, 0.85 ng/mL TNFα, 1.0 mM Luminol, C5a 20 nM, 76.5% HWB, 0.15% DMSO and various concentrations of test agent.
The percent (%) effect at each concentration of test agent was then calculated based on and relative to the amount of signal that was produced by positive (i.e. full inhibition of C5a induced oxidative burst) and negative (i.e. completely uninhibited C5a induced oxidative burst) control wells contained within each assay plate. The concentration and % effect values for test agents were plotted and the concentration of test agent required for 50% effect (IC50) was determined with a four-parameter logistic dose response equation (BioBook; IDBS). Kb (nM) was then calculated (BioBook; IDBS) using the equation described by Leff and Dougal (TIPS 1993 14:110-112).
Work on `CN(CC(=O)O)[C@@H](Cc1ccccc1)C(=O)N[C@H]1CCCNC(=O)[C@H](CCCNC(=N)N)NC(=O)[C@H](Cc2c[nH]c3ccccc23)NC(=O)[C@@H](C[C@H]2CC[C@@H](O)CC2)NC(=O)[C@@H]2C[C@@H](O)CN2C1=O` [Example 11, N—((S)-1-(((3R,6S,9S,15S,19R,20aS)-6-((1H-indol-3-yl)methyl)-9-(3-guanidinopropyl)-19-hydroxy-3-(((1s,4S)-4-hydroxycyclohexyl)methyl)-1,4,7,10,16-pentaoxoicosahydropyrrolo[1,2-a][1,4,7,10,13]pentaazacyclooctadecin-15-yl)amino)-1-oxo-3-phenylpropan-2-yl)-N-methylglycine] (X1-[Orn][Hyp][X2]WR; lactam 1-C) yielded a Kb of 1.2 nM. `[2H]c1cc([2H])cc(C[C@H](NCC(=O)O)C(=O)N[C@H]2CCCNC(=O)[C@H](CCCNC(=N)N)NC(=O)[C@H](Cc3c[nH]c4ccccc34)NC(=O)[C@@H](C[C@H]3CC[C@@H](O)CC3)NC(=O)[C@@H]3C[C@@H](O)CN3C2=O)c1` [Example 13, ((S)-1-(((3R,6S,9S,15S,19R,20aS)-6-((1H-indol-3-yl)methyl)-9-(3-guanidinopropyl)-19-hydroxy-3-(((1s,4S)-4-hydroxycyclohexyl)methyl)-1,4,7,10,16-pentaoxoicosahydropyrrolo[1,2-a][1,4,7,10,13]pentaazacyclooctadecin-15-yl)amino)-1-oxo-3-(3,5-dideuterophenyl)propan-2-yl)glycine] showed a Kb of 1.3 nM. Work on `N=C(N)NCCC[C@@H]1NC(=O)[C@H](Cc2c[nH]c3ccccc23)NC(=O)[C@@H](C[C@H]2CC[C@@H](O)CC2)NC(=O)[C@@H]2C[C@@H](NCC(=O)O)CN2C(=O)[C@@H](NC(=O)[C@H](Cc2ccccc2)NCC(=O)O)CCCNC1=O` [Example 14, ((31R,6S,9S,15S,19R,20aS)-6-((1H-indol-3-yl)methyl)-15-((S)-2-((carboxymethyl)amino)-3-phenylpropanamido)-9-(3-guanidinopropyl)-3-(((1s,4S)-4-hydroxycyclohexyl)methyl)-1,4,7,10,16-pentaoxoicosahydropyrrolo[1,2-a][1,4,7,10,13]pentaazacyclooctadecin-19-yl)glycine] yielded a Kb of 1.7 nM. With `COc1ccc2c(C[C@@H]3NC(=O)[C@@H](C[C@H]4CC[C@@H](O)CC4)NC(=O)[C@@H]4C[C@@H](O)CN4C(=O)[C@@H](NC(=O)[C@H](Cc4ccccc4)NCC(=O)O)CCCNC(=O)[C@H](CCCNC(=N)N)NC3=O)c[nH]c2c1` [Example 15, ((S)-1-(((3R,6S,9S,15S,19R,20aS)-9-(3-guanidinopropyl)-19-hydroxy-3-(((1s,4S)-4-hydroxycyclohexyl)methyl)-6-((6-methoxy-1H-indol-3-yl)methyl)-1,4,7,10,16-pentaoxoicosahydropyrrolo[1,2-a][1,4,7,10,13]pentaazacyclooctadecin-15-yl)amino)-1-oxo-3-phenylpropan-2-yl)glycine] the Kb was 2.2 nM.
